{"source": "paper PMC9271792", "about": "(Frontiers in Endocrinology, 2022)", "key": {"[1]": {"test_system": "IRS-1 in L6 IR-A cells", "assay": "IRS-1 activation time-course (immunoprecipitation, pTyr20)", "format": "cell-based, rat cells; human IR-A", "settings": "10 nM", "method": "(§1) Figure 6 Cis-dicarba analogues are incapable of promoting IR-A internalization due to inability to promote phosphorylation of IR-A, IRS-1 and Shc. […] Data are presented as % of surface receptor/total receptor followed by normalisation with % of surface receptor in SFM at t = 0; i.e. SFM at t = 0 is equivalent to 100%. […] All data are the mean ± S.E.M. n = at least 3 independent experiments. Error bars are shown when greater than the size of the symbols. Statistical significance were determined via one-way repeated measures ANOVA followed by Dunnets multiple test.\nActivated IRS-1 was determined using immunoprecipitation. Anti-IRS-1 antibody(4ug) was pre incubated with protein G agarose overnight at 4°C before adding to lysates to immunoprecipitate IRS-1 overnight at 4°C. Complexes were washed three times in PBS, boiled under reducing conditions and samples separated on 10% glycine gels. Transferred blots were blocked for 1 h at room temperature in TBST containing 3% BSA and probed with primary antibodies (anti-IRS-1 for total IRS-1 protein, or anti pTyr20 for total phosphorylated protein in immunoprecipitation) in blocking solution (TBST containing 3% BSA) overnight at 4°C. Blots were washed six times for 5 min each in TBST then probed with fluorophore-conjugated secondary antibodies (donkey anti-mouse 680RD and anti- rabbit 800CW) for 1 hour at room temperature. […]"}, "[2]": {"test_system": "Akt / GSK-3β / S6 / AS160 phosphorylation in R^-IR-B cells", "assay": "Western blot dose-response, PI3K/Akt pathway, R-IR-B fibroblasts", "format": "cell-based, mouse cells; human IR-B", "settings": "10 min, significant difference only at 0.1 nM (p* ≤ 0.05 to p** ≤ 0.01)"}, "[3]": {"test_system": "mitogenic signalling", "settings": "ref [9], [30]; cited from earlier work"}, "[4]": {"test_system": "ERK 1/2 / p90RSK phosphorylation in L6 IR-A cells", "assay": "Western blot time-course, MAPK pathway, L6 IR-A", "format": "cell-based, rat cells; human IR-A", "settings": "10 nM, 0–30 min"}, "[5]": {"test_system": "Akt / GSK-3β / S6 / AS160 phosphorylation in L6 IR-A cells", "assay": "Western blot dose-response, PI3K/Akt pathway (Akt, GSK-3β, S6, AS160), L6 IR-A", "format": "cell-based, rat cells; human IR-A"}, "[6]": {"test_system": "NIH3T3-L1 adipocytes", "assay": "Glucose uptake assay (2-deoxyglucose)", "format": "cell-based", "settings": "paired T-test; n = at least 3"}, "[7]": {"test_system": "IR-B", "settings": "ref [9]; cited from earlier work", "description": "(§2) This contrasts with cis-dicarba insulin which wa ..."}, "[8]": {"target": "T1, IGF-1R (Homo sapiens, UniProt P08069)", "T1 construct": "expressed in transfected cells; host or cells: P6 cells (BALB/c3T3 mouse fibroblasts overexpressing human IGF-1R); Triton X-100 lysate captured on anti-IGF-1R antibody 24-31", "settings": "ref [9]; cited from earlier work", "description": "as §2"}, "[9]": {"test_system": "IR", "settings": "KIRA; compared to insulin; ref [9]; cited from earlier work", "description": "This is similar to the poorly mitogenic S597 peptide, which also promoted slowe ..."}, "[10]": {"test_system": "ERK 1 / ERK 2 / p90RSK phosphorylation in L6 IR-A cells", "assay": "Western blot dose-response, MAPK pathway (ERK1, ERK2, p90RSK), L6 IR-A", "format": "cell-based, rat cells; human IR-A"}, "[11]": {"test_system": "IR", "settings": "ref [9], [30]; cited from earlier work"}, "[12]": {"test_system": "metabolic activity", "settings": "ref [9], [30]; cited from earlier work"}, "[13]": {"test_system": "IR-A", "assay": "IR-A receptor internalization", "format": "cell-based, human", "settings": "10 nM, 2 hours post-stimulation", "method": "(§3) All data are the mean ± S.E.M. n = at least 3 independent experiments. Error bars are shown when greater than the size of the symbols.\n(§4) Assays were performed in triplicate in at least three independent experiments."}, "[14]": {"test_system": "L6 rat skeletal myoblasts overexpressing human IR-A (L6 IR-A cells)", "assay": "DNA synthesis assay (EdU incorporation)", "format": "cell-based", "settings": "18 h, 0.01 - 300 nM, compared to native insulin", "method": "as §4"}, "[15]": {"target": "T2, IR-A (phospho-Tyr1150/Tyr1151) (Homo sapiens, UniProt P06213)", "T2 construct": "expressed in transfected cells; host or cells: L6 rat skeletal myoblasts over-expressing human IR-A (hIR-A L6), from Novo Nordisk", "assay": "IR-A phosphorylation Tyr1150/Tyr1151 time-course (western blot)", "format": "cell-based", "settings": "L6 IR-A, 10 nM, 0–10 min", "description": "as §3"}, "[16]": {"target": "T1, IGF-1R", "settings": "cis dicarba insulin, footnote b; ref [9]; cited from earlier work"}, "[17]": {"target": "T3, IR isoform B (IR-B) (Homo sapiens, UniProt P06213)", "T3 construct": "expressed in transfected cells; host or cells: R-IR-B cells (IGF-1R knockout mouse embryonic fibroblasts over-expressing human IR-B); Triton X-100 lysate captured on anti-IR antibody 83-7", "settings": "cis dicarba insulin, footnote b, ref [9], cited from earlier work"}, "[18]": {"test_system": "Akt / GSK-3β / S6 phosphorylation in L6 IR-A cells", "assay": "Western blot time-course, PI3K/Akt pathway, L6 IR-A", "format": "cell-based, rat cells; human IR-A", "settings": "10 nM, 0–30 min, p-Akt Ser473, p-Akt Thr308, p-GSK3β, p-S6"}, "[19]": {"test_system": "ERK 1 / ERK 2 / p90RSK phosphorylation in R^-IR-B cells", "assay": "Western blot dose-response, MAPK pathway, R-IR-B fibroblasts", "format": "cell-based, mouse cells; human IR-B", "settings": "0.1–100 nM, 10 min, 2-way ANOVA"}, "[20]": {"test_system": "p52 Shc (phospho-Tyr239/Tyr240) in L6 IR-A cells", "assay": "p52 Shc phosphorylation time-course (western blot)", "format": "cell-based, rat cells; human IR-A", "settings": "10 nM", "method": "as §1\nR/^-IR-B (80,000 cells/well) or L6 IR-A cells (240,000 cells/well) were seeded in 6-well plates and allowed to grow to confluence (~ 48 hours). Prior to stimulation, cells were serum starved in SFM/1% BSA for 4 h. […] Lysates were scraped from the well, spun at 13,000 rpm for 3 min at 0°C to remove cell debris and stored at -80°C. Lysate protein concentrations were quantified using Bio-Rad DC™ Protein Assay and 20μg of each sample was separated in 10% glycine gels under reducing conditions. […]\nDose response blots were developed in ECL reagent according to manufacturer’s instruction and imaged in Fujiflim LAS-4000 Luminescent Image Analyzer. […] All data were analysed with LI-COR Image Studio™ software and each band intensity was normalized to tubulin of its respective lane."}, "[21]": {"test_system": "C57BL6 male mice", "assay": "Insulin tolerance test", "format": "in vivo, mouse", "settings": "0.75 IU/kg ip"}, "[22]": {"settings": "dose-response, compared to insulin"}}, "note": "“Also recorded” adds a separate entry of the source."}
{"substance": "cis-[Δ^4A6,11]-dicarba human insulin [cis dicarba insulin]", "values": [{"measurement": "IRS-1 activation (in words)", "setting": "[1]", "value": "significantly less potent in activating both IRS-1 and Shc"}, {"measurement": "IRS-1 activation relative to insulin", "setting": "[1]; 0–10 min, compared to insulin", "value": "~ 30%"}, {"measurement": "Akt phosphorylation at Ser473 (in words)", "setting": "[2]", "value": "generally similar to their parent peptides"}, {"measurement": "mitogenic response (in words)", "setting": "[3]", "value": "poor at activating a mitogenic response"}, {"measurement": "MAPK signalling activation, ERK1/2 and p90RSK (in words)", "setting": "[4]; compared to parent", "value": "lower level of activation of MAPK signalling"}, {"measurement": "ERK 1/2 phosphorylation maximal level (in words)", "setting": "[4]; compared to parent peptides", "value": "never achieved the maximal level attained through stimulation by their corresponding parent peptides"}, {"measurement": "Akt phosphorylation at Ser473 (in words)", "setting": "[5]; L6 IR-A, 10 min, significant difference only at 0.1 nM (p* ≤ 0.05 to p** ≤ 0.01)", "value": "generally similar to their parent peptides"}, {"measurement": "PI3K/Akt pathway activation (in words)", "setting": "[5]; [22]", "value": "equal potency in activating the PI3K/Akt pathway"}, {"measurement": "glucose uptake, significance of difference between insulin, cis-dicarba insulin and cis-dicarba glargine", "setting": "[6]", "value": "ns"}, {"measurement": "binding and activation of IR-B (in words)", "setting": "[7]", "value": "equipotent to insulin in both binding and activation of IR-B and IGF-1R"}, {"measurement": "binding and activation of IGF-1R (in words)", "setting": "[8]", "value": "equipotent to insulin in both binding and activation of IR-B and IGF-1R"}, {"measurement": "total receptor phosphorylation in kinase receptor activation assay (in words)", "setting": "[9]", "value": "almost as potent as insulin in a kinase receptor activation assay"}, {"measurement": "phosphorylation of ERK 1, ERK 2 and p90RSK (in words)", "setting": "[10]; 0.1–10 nM, t = 10 min, p* ≤ 0.05 to p**** ≤ 0.0001 vs parent", "value": "significantly reduced phosphorylation levels of ERK 1, ERK 2 and p90RSK"}, {"measurement": "p-p90RSK (S380), overall significance vs parent", "setting": "[10]; L6 IR-A, 0.1–100 nM, 10 min, 2-way ANOVA", "value": "* (P ≤ 0.05)"}, {"measurement": "MAPK pathway activation (in words)", "setting": "[10]; [22]", "value": "significantly less effective than insulin or glargine, respectively, in activating the MAPK pathway; also recorded: significantly less potent at activating the MAPK pathway"}, {"measurement": "IR binding (in words)", "setting": "[11]", "value": "binds the IR with equal affinity to insulin"}, {"measurement": "metabolic activity (in words)", "setting": "[12]", "value": "promotes equivalent metabolic activity"}, {"measurement": "IR-A internalization (in words)", "setting": "[13]", "value": "significantly impaired ability to promote IR-A internalization, with virtually all receptor remaining on the surface 2 hours post-stimulation; also recorded: ineffective in promoting IR internalisation"}, {"measurement": "DNA synthesis, fold reduction in mitogenic potency vs native insulin", "setting": "[14]", "value": "~ 5 fold"}, {"measurement": "IR-A Tyr1150/Tyr1151 phosphorylation (in words)", "setting": "[15]", "value": "much slower to stimulate receptor activation; also recorded: reduced kinetics of activation compared to insulin"}, {"measurement": "IR-A Tyr1150/Tyr1151 phosphorylation, response relative to insulin", "setting": "[15]; % of that of insulin", "value": "~ 20%"}, {"measurement": "Affinity (% Insulin ± SEM), IGF-1R", "setting": "[16]", "value": "~100", "unit": "% Insulin"}, {"measurement": "IC50", "setting": "[16]", "value": "> 300", "unit": "nM"}, {"measurement": "Affinity (% Insulin ± SEM), IR-B", "setting": "[17]; non-statistically significant", "value": 100, "unit": "% Insulin"}, {"measurement": "IC50", "setting": "[17]", "value": "1.07 ± 0.3", "unit": "nM"}, {"measurement": "kinetics of activation of the PI3K/Akt pathway (in words)", "setting": "[18]", "value": "essentially the same"}, {"measurement": "p-Erk 1 (T202/Y204), overall significance vs parent", "setting": "[19]", "value": "* (P ≤ 0.05)"}, {"measurement": "Shc activation (in words)", "setting": "[20]", "value": "significantly less potent in activating both IRS-1 and Shc"}, {"measurement": "Shc activation relative to insulin", "setting": "[20]; 0–10 min, compared to insulin", "value": "~ 30%"}, {"measurement": "blood glucose lowering (in words)", "setting": "[21]; chow fed mice, non-fasting, 2 hours post-treatment", "value": "no statistical difference"}, {"measurement": "blood glucose change, significance vs parent (AUC)", "setting": "[21]; insulin vs cis-dicarba insulin, glargine vs cis-dicarba glargine, paired T-test, n = 5-6 per group", "value": "ns"}]}
